We go through one substance from patent publication US12098352B2, “Stem cell-based lung-on-chip models” (EMULATE, INC., priority 2018, dated 2024).

The assay deals with IL-6, IL-8 and MCP-1. The assay is described as follows: Cytokine secretion in chip medium effluent (ELISA). It is filed as cell-based, human. From the text: We studied interaction between different chip compartments by perturbating the system with biological and chemical stressors such as LPS, and H2O2 which are known to induce a reversible disruption of the cellular monolayer after acute administration both in vivo and in vitro. […] To assess changes in the barrier function following the exposure to these insults, we added a fluorescent dye (e.g. […]—Dextran-FITC) to the endothelial compartment, which is under control condition confirmed that the endothelium and epithelium form a barrier to the dies. The presence of a strong barrier is also indirectly confirmed by the presence of continuous pattern of E-cad and VE-cad in the monolayer of Alveolar epithelial and endothelial cell, respectively. […] We also decoupled the effect of single biological component to the inflammatory response by selectively removing them from the system in an integrated matrix. […] In fact, the recorded value of IL-6 and IL-8 is not the algebraic sum of the concentration of the factors released by the single cellular components. […]
The amount of Surfactant B and C was collected from chip epithelial cell surface by PBS washing and measured by Human SFTPB/Surfactant Protein B ELISA Kit (Sandwich ELISA)—LS-F4439 and Human SFTPC/Surfactant Protein C ELISA Kit (Sandwich ELISA)—LS-F12438 (LifeSpanBioScience) following the manufacturer's protocol. The color reaction was measured at 450 nm with a photometer (specification). […] Similarly, the presence of IL-6, IL-8 and MPC in medium samples was detected by Human TLR-induced Cytokines II: Microbial-induced Multi-Analyte ELISArray Kit (MEH-008A) (Qiogen) following the manufacturer's protocol. The color reaction was measured at 450 nm with a photometer (specification). […]

For Lipopolysaccharide [LPS], the “release of IL-6, IL-8 and MCP-1 in medium effluent” value (24 hours of exposure) is given as “increases of lung specific cytokines”. Besides, the “IL-6, IL-8 and MCP-1 secretion, fold increase in relation to untreated controls” value (LPS stimulation, co-presence of epithelial cells) is 40-90 fold.
